PubChem BioAssay (NCI)
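GI50 = concentration required for 50% inhibition of growth. TGI marks complete inhibition of growth.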

What was measured:
Test in all cases: NCI-60 cell line screen, 384-well format
MDA-MB-231 breast = test system: MDA-MB-231 breast
MDA-MB-435 melanoma = test system: MDA-MB-435 melanoma
OVCAR-4 ovarian = test system: OVCAR-4 ovarian
MDA-MB-468 breast = test system: MDA-MB-468 breast
HT29 colon = test system: HT29 colon
SR leukemia = test system: SR leukemia
RPMI-8226 leukemia = test system: RPMI-8226 leukemia
OVCAR-8 ovarian = test system: OVCAR-8 ovarian
SNB-75 CNS = test system: SNB-75 CNS
UO-31 renal = test system: UO-31 renal
CAKI-1 renal = test system: CAKI-1 renal
NCI-H322M lung = test system: NCI-H322M lung
SK-MEL-2 melanoma = test system: SK-MEL-2 melanoma
U251 glioblastoma = test system: U251 glioblastoma
RXF 393 renal = test system: RXF 393 renal
SF-539 CNS = test system: SF-539 CNS
NCI-H226 lung = test system: NCI-H226 lung
A549 NSCLC = test system: A549 NSCLC
HOP-92 NSCLC = test system: HOP-92 NSCLC
HOP-62 NSCLC = test system: HOP-62 NSCLC
SK-MEL-5 melanoma = test system: SK-MEL-5 melanoma
NCI-H23 lung = test system: NCI-H23 lung
IGROV1 ovarian = test system: IGROV1 ovarian
MCF7 breast = test system: MCF7 breast
A498 renal = test system: A498 renal
NCI-H460 NSCLC = test system: NCI-H460 NSCLC
HCC-2998 colon = test system: HCC-2998 colon
UACC-62 melanoma = test system: UACC-62 melanoma
PC-3 prostate = test system: PC-3 prostate
NCI-H522 lung = test system: NCI-H522 lung
SNB-19 CNS = test system: SNB-19 CNS
MOLT-4 leukemia = test system: MOLT-4 leukemia
M14 melanoma = test system: M14 melanoma
HS 578T breast = test system: HS 578T breast
DU-145 prostate = test system: DU-145 prostate
COLO 205 colon = test system: COLO 205 colon
LOX IMVI melanoma = test system: LOX IMVI melanoma
HCT-15 colon = test system: HCT-15 colon
K-562 leukemia = test system: K-562 leukemia
SK-MEL-28 melanoma = test system: SK-MEL-28 melanoma
CCRF-CEM leukemia = test system: CCRF-CEM leukemia
EKVX NSCLC = test system: EKVX NSCLC
T-47D breast = test system: T-47D breast
SF-295 CNS = test system: SF-295 CNS
OVCAR-3 ovarian = test system: OVCAR-3 ovarian
HCT-116 colon = test system: HCT-116 colon
786-0 renal = test system: 786-0 renal

C[C@@H](Oc1cc(-c2cnn(C3CCNCC3)c2)cnc1N)c1c(Cl)cc(F)cc1Cl
GI50 (MDA-MB-231 breast): 1.55 µM
TGI (MDA-MB-231 breast): 3.49 µM
GI50 (MDA-MB-435 melanoma): 2.57 µM
TGI (MDA-MB-435 melanoma): 6.79 µM
GI50 (OVCAR-4 ovarian): 5.81 µM
TGI (OVCAR-4 ovarian): 11 µM
GI50 (MDA-MB-468 breast): 0.725 µM
TGI (MDA-MB-468 breast): 1.56 µM
GI50 (HT29 colon): 1.02 µM
TGI (HT29 colon): 2.3 µM
GI50 (SR leukemia): 0.0423 µM
TGI (SR leukemia): 0.0738 µM
GI50 (RPMI-8226 leukemia): 1.16 µM
TGI (RPMI-8226 leukemia): 2.97 µM
GI50 (OVCAR-8 ovarian): 2.03 µM
TGI (OVCAR-8 ovarian): 5.41 µM
GI50 (SNB-75 CNS): 1.9 µM
TGI (SNB-75 CNS): 3.85 µM
GI50 (UO-31 renal): 2.64 µM
TGI (UO-31 renal): 6.43 µM
GI50 (CAKI-1 renal): 1.35 µM
TGI (CAKI-1 renal): 2.98 µM
GI50 (NCI-H322M lung): 2.88 µM
TGI (NCI-H322M lung): 8.37 µM
GI50 (SK-MEL-2 melanoma): 1.45 µM
TGI (SK-MEL-2 melanoma): 2.76 µM
GI50 (U251 glioblastoma): 2.78 µM
TGI (U251 glioblastoma): 7.16 µM
GI50 (RXF 393 renal): 1.94 µM
TGI (RXF 393 renal): 3.61 µM
GI50 (SF-539 CNS): 1.7 µM
TGI (SF-539 CNS): 3.65 µM
GI50 (NCI-H226 lung): 1.25 µM
TGI (NCI-H226 lung): 3.25 µM
GI50 (A549 NSCLC): 0.86 µM
TGI (A549 NSCLC): 4.42 µM
GI50 (HOP-92 NSCLC): 1.03 µM
TGI (HOP-92 NSCLC): 2.36 µM
GI50 (HOP-62 NSCLC): 2.16 µM
TGI (HOP-62 NSCLC): 6.37 µM
GI50 (SK-MEL-5 melanoma): 1.39 µM
TGI (SK-MEL-5 melanoma): 2.7 µM
GI50 (NCI-H23 lung): 0.641 µM
TGI (NCI-H23 lung): 2.42 µM
GI50 (IGROV1 ovarian): 2.77 µM
TGI (IGROV1 ovarian): 7.26 µM
GI50 (MCF7 breast): 0.614 µM
TGI (MCF7 breast): 1.86 µM
GI50 (A498 renal): 1.65 µM
TGI (A498 renal): 3.84 µM
GI50 (NCI-H460 NSCLC): 0.529 µM
TGI (NCI-H460 NSCLC): 2.65 µM
GI50 (HCC-2998 colon): 2.21 µM
TGI (HCC-2998 colon): 4.91 µM
GI50 (UACC-62 melanoma): 1.39 µM
TGI (UACC-62 melanoma): 3.09 µM
GI50 (PC-3 prostate): 1.94 µM
TGI (PC-3 prostate): 5.57 µM
GI50 (NCI-H522 lung): 3.21 µM
TGI (NCI-H522 lung): 7.29 µM
GI50 (SNB-19 CNS): 3.87 µM
TGI (SNB-19 CNS): 8.61 µM
GI50 (MOLT-4 leukemia): 0.196 µM
TGI (MOLT-4 leukemia): 0.377 µM
GI50 (M14 melanoma): 1.49 µM
TGI (M14 melanoma): 2.83 µM
GI50 (HS 578T breast): 1.48 µM
TGI (HS 578T breast): 3.71 µM
GI50 (DU-145 prostate): 2.09 µM
TGI (DU-145 prostate): 6.25 µM
GI50 (COLO 205 colon): 0.971 µM
TGI (COLO 205 colon): 2.39 µM
GI50 (LOX IMVI melanoma): 1.33 µM
TGI (LOX IMVI melanoma): 2.63 µM
GI50 (HCT-15 colon): 1.72 µM
TGI (HCT-15 colon): 5.47 µM
GI50 (K-562 leukemia): 0.131 µM
TGI (K-562 leukemia): 0.262 µM
GI50 (SK-MEL-28 melanoma): 1.6 µM
TGI (SK-MEL-28 melanoma): 3.09 µM
GI50 (CCRF-CEM leukemia): 0.277 µM
TGI (CCRF-CEM leukemia): 0.66 µM
GI50 (EKVX NSCLC): 2.2 µM
TGI (EKVX NSCLC): 6.7 µM
GI50 (T-47D breast): 2.19 µM
TGI (T-47D breast): 6.11 µM
GI50 (SF-295 CNS): 1.21 µM
TGI (SF-295 CNS): 4.3 µM
GI50 (OVCAR-3 ovarian): 2.54 µM
TGI (OVCAR-3 ovarian): 6.47 µM
GI50 (HCT-116 colon): 0.728 µM
TGI (HCT-116 colon): 1.97 µM
GI50 ([…]-0 renal): 1.48 µM
TGI (786-0 renal): 2.96 µM
